Where “and” joins values, the source holds several entries; their conditions need not be identical. Identical values can stand only once.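 Following 48 hours of exposure in 96-well plates, responses at five concentrations were used to interpolate endpoints linearly. The concentration for 50% growth inhibition is given as GI50. TGI denotes the concentration required for complete inhibition of growth.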
Tests used:
Experiment in all cases: inhibition of tumour cell growth, NCI panel, 48 h
LXFL 529 NSCLC = system: LXFL 529 NSCLC
NCI/ADR-RES ovarian = system: NCI/ADR-RES ovarian
OVCAR-3 ovarian = system: OVCAR-3 ovarian
PC-3 prostate = system: PC-3 prostate
KM20L2 colon = system: KM20L2 colon
SF-295 CNS = system: SF-295 CNS
A498 renal = system: A498 renal
A549 NSCLC = system: A549 NSCLC
U251 CNS = system: U251 CNS
UACC-62 melanoma = system: UACC-62 melanoma

## Cc1c(N)nc(C(CC(N)=O)NCC(N)C(N)=O)nc1C(=O)NC(C(=O)NC(C)C(O)C(C)C(=O)NC(C(=O)NCCc1nc(-c2nc(C(=O)NCCCNC(C)c3ccccc3)cs2)cs1)C(C)O)C(OC1OC(CO)C(O)C(O)C1OC1OC(CO)C(O)C(OC(N)=O)C1O)c1cnc[nH]1 (stereo unspecified)
LXFL 529 NSCLC
  TGI: 50 µM
NCI/ADR-RES ovarian
  TGI: 45.5 µM
OVCAR-3 ovarian
  GI50: 79.2 µM
  TGI: 38.3 µM and > 100 µM
PC-3 prostate
  GI50: 38.8 µM
  TGI: > 100 µM
KM20L2 colon
  TGI: 50 µM
SF-295 CNS
  GI50: 0.115 µM
  TGI: 5.22 µM and 3.46 µM
A498 renal
  TGI: 27.5 µM
A549 NSCLC
  GI50: 0.63 µM
  TGI: 50 µM and > 100 µM
U251 CNS
  GI50: 2.32 µM
  TGI: 24 µM and 56.6 µM
UACC-62 melanoma
  TGI: 8.82 µM

## NCCNC(=O)c1cccc2cc3ccccc3nc12
LXFL 529 NSCLC
  TGI: > 36.6 µM
OVCAR-3 ovarian
  TGI: 15.4 µM
KM20L2 colon
  TGI: 12.5 µM
SF-295 CNS
  TGI: > 20.9 µM
A498 renal
  TGI: 5.88 µM
A549 NSCLC
  TGI: > 100 µM
U251 CNS
  TGI: 9.04 µM
UACC-62 melanoma
  TGI: 8.34 µM

## N#CC(C#N)=Cc1ccc(CP(=O)(O)O)cc1
LXFL 529 NSCLC
  TGI: > 100 µM
OVCAR-3 ovarian
  TGI: > 100 µM
KM20L2 colon
  TGI: > 100 µM
SF-295 CNS
  TGI: > 100 µM
A498 renal
  TGI: > 100 µM
A549 NSCLC
  TGI: > 100 µM
U251 CNS
  TGI: > 100 µM
UACC-62 melanoma
  TGI: > 100 µM

## CCC1(OC(=O)CN)C(=O)OCc2c1cc1n(c2=O)Cc2cc3ccccc3nc2-1 (stereo unspecified)
LXFL 529 NSCLC
  GI50: 0.135 µM
  TGI: 6.06 µM
NCI/ADR-RES ovarian
  GI50: 0.0173 µM
  TGI: 0.137 µM and 0.0776 µM
OVCAR-3 ovarian
  GI50: 0.308 µM
  TGI: 0.731 µM and 0.557 µM
PC-3 prostate
  GI50: 0.172 µM
  TGI: > 100 µM
KM20L2 colon
  GI50: 0.056 µM
SF-295 CNS
  GI50: 0.00249 µM
A498 renal
  GI50: 0.0129 µM
  TGI: 0.159 µM and 0.559 µM
A549 NSCLC
  GI50: 0.0472 µM
  TGI: 2.28 µM
U251 CNS
  GI50: 0.0118 µM
  TGI: 0.333 µM and 0.636 µM
UACC-62 melanoma
  GI50: 0.00787 µM
  TGI: 0.0895 µM and 0.0596 µM

## CCCN(CCC)C(=O)c1nc(N)nc(-c2ccc(OC)cc2)c1-c1ccc(OC)cc1
LXFL 529 NSCLC
  TGI: > 100 µM
OVCAR-3 ovarian
  TGI: > 100 µM
KM20L2 colon
  TGI: > 100 µM
SF-295 CNS
  TGI: > 100 µM
A498 renal
  TGI: > 100 µM
A549 NSCLC
  TGI: > 100 µM
U251 CNS
  TGI: > 100 µM
UACC-62 melanoma
  TGI: > 100 µM

## CCCCc1c2cnccc2c(CCCC)c2c1[nH]c1ccccc12
LXFL 529 NSCLC
  TGI: 25.6 µM
OVCAR-3 ovarian
  TGI: 19.6 µM
KM20L2 colon
  TGI: > 100 µM
SF-295 CNS
  TGI: 20.2 µM
A498 renal
  TGI: 35.2 µM
A549 NSCLC
  TGI: 29.5 µM
U251 CNS
  TGI: 27 µM
UACC-62 melanoma
  TGI: 23.7 µM

## CCOC(=O)C12C(C(=O)OC)=C(C)N(NC(=O)Nc3ccccc3)C1(N)N(NC(=O)Nc1ccccc1)C(C)=C2C(=O)OC (stereo unspecified)
LXFL 529 NSCLC
  TGI: > 79.5 µM
OVCAR-3 ovarian
  TGI: 60.2 µM
KM20L2 colon
  TGI: 42.8 µM
SF-295 CNS
  TGI: 60 µM
A498 renal
  TGI: > 100 µM
A549 NSCLC
  TGI: > 100 µM
U251 CNS
  TGI: 35.8 µM
UACC-62 melanoma
  TGI: 34.5 µM

## CCCCCCCC/C=C1\CCC(CN2CCOCC2)C1=O (stereo unspecified)
LXFL 529 NSCLC
  TGI: 9.2 µM
NCI/ADR-RES ovarian
  TGI: 14.4 µM
OVCAR-3 ovarian
  TGI: 14.8 µM
PC-3 prostate
  TGI: 23.7 µM
KM20L2 colon
  TGI: 33 µM
SF-295 CNS
  TGI: 28.2 µM
A498 renal
  TGI: 29.9 µM
A549 NSCLC
  TGI: 24.7 µM
U251 CNS
  TGI: 28 µM
UACC-62 melanoma
  TGI: 12.6 µM

## CC(C(=O)c1ccccc1)C1(O)C(=O)Nc2ccc(Cl)cc21 (stereo unspecified)
LXFL 529 NSCLC
  TGI: > 100 µM
OVCAR-3 ovarian
  TGI: > 100 µM
KM20L2 colon
  TGI: > 100 µM
SF-295 CNS
  TGI: > 100 µM
A498 renal
  TGI: > 100 µM
A549 NSCLC
  TGI: > 100 µM
U251 CNS
  TGI: > 100 µM
UACC-62 melanoma
  TGI: > 100 µM

## COc1ccc(C(=O)CC2=Nc3nnc(CCCCCCCc4nnc5n4C(=O)C(CC(=O)c4ccc(OC)cc4)=N5)n3C2=O)cc1
LXFL 529 NSCLC
  TGI: > 100 µM
OVCAR-3 ovarian
  TGI: > 100 µM
KM20L2 colon
  TGI: > 100 µM
SF-295 CNS
  TGI: > 100 µM
A498 renal
  TGI: > 100 µM
A549 NSCLC
  TGI: > 100 µM
U251 CNS
  TGI: > 100 µM
UACC-62 melanoma
  TGI: > 100 µM

## C1CN(P2(N3CC3)=NP(N3CC3)(N3CC3)=NP(N3CC3)(N3CC3)=N2)CCO1 (stereo unspecified)
LXFL 529 NSCLC
  TGI: > 100 µM
OVCAR-3 ovarian
  TGI: > 100 µM
KM20L2 colon
  TGI: > 100 µM
SF-295 CNS
  TGI: > 100 µM
A498 renal
  TGI: > 100 µM
A549 NSCLC
  TGI: > 100 µM
U251 CNS
  TGI: > 100 µM
UACC-62 melanoma
  TGI: > 100 µM

## CC(C)c1cccc(O)c(=O)c1
LXFL 529 NSCLC
  TGI: > 100 µM
NCI/ADR-RES ovarian
  GI50: 4.5 µg/mL
  TGI: > 75 µg/mL
OVCAR-3 ovarian
  GI50: 2.5 µg/mL
PC-3 prostate
  GI50: 2.6 µg/mL
  TGI: > 75 µg/mL
KM20L2 colon
  TGI: > 100 µM
SF-295 CNS
  GI50: 2.52 µg/mL
  TGI: 71.6 µg/mL and > 100 µM
A498 renal
  TGI: > 100 µM
A549 NSCLC
  GI50: 2.42 µg/mL
  TGI: > 75 µg/mL and > 74.5 µM
U251 CNS
  GI50: 1.23 µg/mL
UACC-62 melanoma
  GI50: 4.17 µg/mL
  TGI: 28.6 µg/mL and > 41.3 µM

## CO[C@H]1C[C@](C)(O)Cc2cc3c(c(O)c21)C(=O)c1c(O)cc2c(c1C3=O)O[C@@H]1O[C@@]2(C)[C@H](O)[C@@H](N(C)C)[C@@H]1O
LXFL 529 NSCLC
  TGI: 7.33 µM
NCI/ADR-RES ovarian
  TGI: 27.8 µM
OVCAR-3 ovarian
  GI50: 1.92 µM
  TGI: 4.03 µM and 8.09 µM
PC-3 prostate
  TGI: 15.9 µM
KM20L2 colon
  GI50: 1.74 µM
  TGI: 5.01 µM and 17.2 µM
SF-295 CNS
  GI50: 0.513 µM
  TGI: 1.96 µM and 2.14 µM
A498 renal
  GI50: 1.66 µM
  TGI: 7.95 µM and 5.14 µM
A549 NSCLC
  GI50: 0.139 µM
  TGI: 1.61 µM and 3.02 µM
U251 CNS
  GI50: 0.461 µM
  TGI: 1.58 µM and 2.48 µM
UACC-62 melanoma
  TGI: 2.98 µM and 2.83 µM

## CC1CC(C)C2OC2(C)C[C@H](C)C(=O)NC(C)C(=O)N(C)[C@H](Cc2c(Br)[nH]c3ccccc23)C(=O)N[C@@H](c2ccc(O)cc2)CC(=O)O1 (stereo partly specified)
LXFL 529 NSCLC
  TGI: 13.3 µM
OVCAR-3 ovarian
  TGI: 9.61 µM
KM20L2 colon
  TGI: > 50.1 µM
SF-295 CNS
  TGI: 31.3 µM
A498 renal
  TGI: 1.79 µM
A549 NSCLC
  TGI: > 100 µM
U251 CNS
  TGI: 2.98 µM
UACC-62 melanoma
  TGI: 14.4 µM

## COc1ccc2c(c1)NC1(O)c3ccccc3C(=O)C21O (stereo unspecified)
LXFL 529 NSCLC
  TGI: > 100 µM
OVCAR-3 ovarian
  TGI: > 100 µM
KM20L2 colon
  TGI: > 100 µM
SF-295 CNS
  TGI: > 100 µM
A498 renal
  TGI: > 100 µM
A549 NSCLC
  TGI: > 100 µM
U251 CNS
  TGI: > 100 µM
UACC-62 melanoma
  TGI: > 100 µM

## CC(C)(C)N/N=C(\C(=O)Nc1nc(=S)[nH][nH]1)C1C(=O)Nc2ccccc2S1=O (stereo unspecified)
LXFL 529 NSCLC
  TGI: > 100 µM
OVCAR-3 ovarian
  TGI: > 100 µM
KM20L2 colon
  TGI: > 100 µM
SF-295 CNS
  TGI: > 100 µM
A498 renal
  TGI: > 100 µM
A549 NSCLC
  TGI: > 100 µM
U251 CNS
  TGI: > 100 µM
UACC-62 melanoma
  TGI: > 100 µM

## Cc1cccc(C)c1N1C(=O)C(=O)C(c2nc3ccccc3s2)/C(=N/NC(=O)c2ccccc2O)C1=O (stereo unspecified)
LXFL 529 NSCLC
  TGI: > 100 µM
OVCAR-3 ovarian
  TGI: > 100 µM
KM20L2 colon
  TGI: > 100 µM
SF-295 CNS
  TGI: > 100 µM
A498 renal
  TGI: > 100 µM
A549 NSCLC
  TGI: > 100 µM
U251 CNS
  TGI: > 100 µM
UACC-62 melanoma
  TGI: 8.31 µM

## C/C(CC(=O)Nc1ccccc1C)=N/NS(=O)(=O)c1ccc(C)cc1
LXFL 529 NSCLC
  TGI: > 100 µM
OVCAR-3 ovarian
  TGI: > 100 µM
KM20L2 colon
  TGI: > 100 µM
SF-295 CNS
  TGI: > 100 µM
A498 renal
  TGI: > 100 µM
A549 NSCLC
  TGI: > 100 µM
U251 CNS
  TGI: > 100 µM
UACC-62 melanoma
  TGI: > 100 µM

## CCOc1ccc(NCC2CC/C(=C\c3ccccc3OC)C2=O)cc1 (stereo unspecified)
LXFL 529 NSCLC
  TGI: 6.5 µM
OVCAR-3 ovarian
  TGI: 17.1 µM
KM20L2 colon
  TGI: 28.4 µM
SF-295 CNS
  TGI: 32.3 µM
A498 renal
  TGI: 33.9 µM
A549 NSCLC
  TGI: 35.6 µM
U251 CNS
  TGI: 27.8 µM
UACC-62 melanoma
  TGI: 25.5 µM
